pIC50: −log10 of the molar value. “And” between values parts separate entries of the source, which are not always exact repeats. Identical values can stand only once. No end group written: not given here.
Tested on: T2 target cells, gp100-reactive TIL 1200 lymphocytes
Experiment: Chromium-release assay, target cell sensitization for lysis by TIL 1200
Format: cell-based, human
Conditions: E:T 20:1, T2 target cells preincubated 90 min with 1 μM peptide, 5 hours
Experimental: Chromium release assays were performed as described previously (Bakker et al., 1994, J. Exp. Med. 179:1005). […] Various amounts of effector cells were then added to the target cells in triplicate wells of U bottomed microliter plates (Costar, Badhoevedorp, The Netherlands) in a final volume of […]. […] After 5 h of incubation, part of the supernatant was harvested and its radioactive content was measured. The mean percentage specific lysis of triplicate wells was calculated using the formula: % specific lysis=((experimental release−spontaneous release)÷(maximal release−spontaneous release))×100.

Question: For YLEPGPVTA [reference compound], which “target cell lysis by TIL 1200 (% specific lysis)” value is on record?
Answer: 3%

Question: KTWAQYWQV was tested. Which “target cell lysis by TIL 1200 (% specific lysis)” value did it give?
Answer: 63%

Question: How did the “target cell lysis by TIL 1200 (% specific lysis)” value turn out when KTWGQYWQA was run?
Answer: 76%

Question: For KAWGQYWQV, which “target cell lysis by TIL 1200 (% specific lysis)” value is on record?
Answer: 64%

Question: KTAGQYWQV was tested. Which “target cell lysis by TIL 1200 (% specific lysis)” value did it give?
Answer: 58%

Question: How did the “target cell lysis by TIL 1200 (% specific lysis)” value turn out when KMWGQYWQV was run?
Answer: 57%

Question: Which “target cell lysis by TIL 1200 (% specific lysis)” value does the source give for KTWGQYAQV here?
Answer: −2%

Question: ATWGQYWQV was tested. Which “target cell lysis by TIL 1200 (% specific lysis)” value did it give?
Answer: 75%

Question: For KTWGQAWQV, which “target cell lysis by TIL 1200 (% specific lysis)” value is on record?
Answer: 7%

Question: With KTWGAYWQV as the sequence, how does the “target cell lysis by TIL 1200 (% specific lysis)” value read?
Answer: 9%

Tested on: T2 target cells, Melan-A/MART-1 27-35-reactive TIL 1235 lymphocytes
Experiment: Chromium-release assay, target cell sensitization for lysis by TIL 1235
Format: cell-based, human
Conditions: E:T 20:1, T2 target cells preincubated 90 min with 1 μM peptide, 5 hours

Question: “AAGIGILAV [alanine-substituted Melan-A/MART-1 27-35 analogue]” was tested. Which “target cell lysis by TIL 1235 (% specific lysis)” value did it give?
Answer: 11%

Question: “AAGIAILTV [alanine-substituted Melan-A/MART-1 27-35 analogue]” was tested. Which “target cell lysis by TIL 1235 (% specific lysis)” value did it give?
Answer: 4%

Question: With YLEPGPVTA [reference compound] as the sequence, how does the “target cell lysis by TIL 1235 (% specific lysis)” value read?
Answer: −3% and −1%

Question: Which “target cell lysis by TIL 1235 (% specific lysis)” value does the source give for “AAGIGIATV [alanine-substituted Melan-A/MART-1 27-35 analogue]” here?
Answer: 6%

Question: How did the “target cell lysis by TIL 1235 (% specific lysis)” value turn out when “AVGIGILTV [Melan-A/MART-1 27-35 N-terminal anchor-replacement analogue]” was run?
Answer: 27%

Question: How did the “target cell lysis by TIL 1235 (% specific lysis)” value turn out when “AIGIGILTV [Melan-A/MART-1 27-35 N-terminal anchor-replacement analogue]” was run?
Answer: 27%

Question: For “GAGIGILTV [glycine-substituted Melan-A/MART-1 27-35 analogue]”, which “target cell lysis by TIL 1235 (% specific lysis)” value is on record?
Answer: 52%

Question: With “AAAIGILTV [alanine-substituted Melan-A/MART-1 27-35 analogue]” as the sequence, how does the “target cell lysis by TIL 1235 (% specific lysis)” value read?
Answer: 13%

Question: For “AGGIGILTV [glycine-substituted Melan-A/MART-1 27-35 analogue]”, which “target cell lysis by TIL 1235 (% specific lysis)” value is on record?
Answer: 6%

Question: Which “target cell lysis by TIL 1235 (% specific lysis)” value does the source give for “AAGIGALTV [alanine-substituted Melan-A/MART-1 27-35 analogue]” here?
Answer: 2%

Question: “AMGIGILTV [Melan-A/MART-1 27-35 N-terminal anchor-replacement analogue]” was tested. Which “target cell lysis by TIL 1235 (% specific lysis)” value did it give?
Answer: 6%

Question: How did the “target cell lysis by TIL 1235 (% specific lysis)” value turn out when “AAGAGILTV [alanine-substituted Melan-A/MART-1 27-35 analogue]” was run?
Answer: 0%

Question: For “ALGIGILTV [Melan-A/MART-1 27-35 N-terminal anchor-replacement analogue]”, which “target cell lysis by TIL 1235 (% specific lysis)” value is on record?
Answer: 16%

Question: How did the “target cell lysis by TIL 1235 (% specific lysis)” value turn out when “AAGIGILTA [alanine-substituted Melan-A/MART-1 27-35 analogue]” was run?
Answer: 26%

Target: T1, HLA-A*0201 (Homo sapiens, UniProt P04439, D140Y/D185E/D98H/E176V/E277Q/G131W/G231S/I119V/I121R/I166T/I218V/L300P/L318F/N151K/N90K/P208A/P217A/Q86G/Q94H/R138H/R169H/T345S)
T1 construct: Peptide-induced HLA-A*0201 upregulation on T2 cells was performed as described previously; endogenous in cells; host or cells: T2 cells (processing-defective, HLA-A*0201+)
Experiment: Peptide-induced HLA-A*0201 upregulation/stabilization on T2 cells
Format: binding
Conditions: 25 μM peptide

Question: How did the “HLA-A*0201 stabilization (Fluorescence Index)” value turn out when “AIGIGILTV [Melan-A/MART-1 27-35 N-terminal anchor-replacement analogue]” was run?
Answer: 1.29

Question: “AAGIGILTA [alanine-substituted Melan-A/MART-1 27-35 analogue]” was tested. Which “HLA-A*0201 stabilization (Fluorescence Index)” value did it give?
Answer: 1.03

Same assay, conditions: 50 μM peptide

Question: Which “HLA-A*0201 stabilization (Fluorescence Index)” value does the source give for “AIGIGILTV [Melan-A/MART-1 27-35 N-terminal anchor-replacement analogue]” here?
Answer: 1.58

Question: With “AAGIGILTA [alanine-substituted Melan-A/MART-1 27-35 analogue]” as the sequence, how does the “HLA-A*0201 stabilization (Fluorescence Index)” value read?
Answer: 1.00

Target: T1, HLA-A*0201
Experiment: Competition based HLA-A*0201 peptide-binding assay on JY cells
Conditions: competition with Fluorescein labeled reference peptide at 4° C., mild acid treated HLA-A*0201+ B-LCL; read-out: Affinity IC50

Question: How did the pIC50 turn out when KLWGQYWQV was run?
Answer: 6.40

Question: How did the pIC50 turn out when KIWGQYWQV was run?
Answer: 6.22

Question: KTWGQYWAV was tested. Which pIC50 did it give?
Answer: 6.30

Question: How did the pIC50 turn out when KVWGQYWQV was run?
Answer: 6.10

Source: patent US8075900B2, “Melanoma associated peptide analogues and vaccines against melanoma” (The United States of America, as represented by the …, priority 1996, dated 2011)
